The target of assay [1] is T1, JAK3 (Homo sapiens, UniProt P52333).
T1 construct: made in house; host or cells: E. coli BL21-derived host (T7 phage) or HEK-293
Description: Kinase competition binding assay (Kd, qPCR readout), JAK3. The following applies: for Kd: Kd class, JAK3, read-out: JAK3 Activity Level; for RCK:JAK3 selectivity ratio: ratio Kd (JAK3): Kd (RCK). As for the experimental part:
(§1) For most assays, kinase-tagged T7 phage strains were prepared in an E. coli host derived from the BL21 strain. E. coli were grown to log-phase and infected with T7 phage and incubated with shaking at 32° C. until lysis. The lysates were centrifuged and filtered to remove cell debris. The remaining kinases were produced in HEK-293 cells and subsequently tagged with DNA for quantitative PCR (qPCR) detection.
(§2) Streptavidin-coated magnetic beads were treated with biotinylated small molecule ligands for 30 minutes at room temperature to generate affinity resins for kinase assays. The liganded beads were blocked with excess biotin and washed with blocking buffer (SeaBlock (Pierce), 1% BSA, 0.05% Tween 20, 1 mM DTT) to remove unbound ligand and to reduce nonspecific binding. Binding reactions were assembled by combining kinases, liganded affinity beads, and test compounds in 1× binding buffer (20% SeaBlock, 0.17×PBS, 0.05% Tween 20, 6 mM DTT). All reactions were performed in polystyrene 96-well plates in a final volume of 0.135 mL. The assay plates were incubated at room temperature with shaking for 1 hour and the affinity beads were washed with wash buffer (1×PBS, 0.05% Tween 20). The beads were then re-suspended in elution buffer (1×PBS, 0.05% Tween 20, 0.5 μM non-biotinylated affinity ligand) and incubated at room temperature with shaking for 30 minutes. The kinase concentration in the eluates was measured by qPCR.
(§3) An 11-point 3-fold serial dilution of each test compound was prepared in 100% DMSO at 100× final test concentration and subsequently diluted to 1× in the assay (final DMSO concentration=1%). Most Kd values were determined using a compound top concentration=30,000 nM. If the initial Kd determined was <0.5 nM, (the lowest concentration tested), the measurement was repeated with a serial dilution starting at a lower top concentration. A more detailed description of this assay may be found in Fabian, M. A. et al. Nat. Biotechnol. 2005, 23, 329-336, which is incorporated herein in its entirety.
(§4) The biological results of inhibition of the kinase domain protein of RC kinase (RCK) and JAK2 and JAK3 are summarized in Tables 2 and 3, wherein A represents a Kd of <50 nM; B represents 50 nM<Kd<100 nM; C represents 100 nM<Kd<1000 nM; and D represents a Kd>1000 nM.
Similarly, RCK:JAK3 selectivity, as measured by the ratio Kd (JAK3): Kd (RCK) is represented as follows: A represents Kd (JAK3): Kd (RCK)>100; B represents 10<Kd (JAK3): Kd (RCK)<100; C represents 1<Kd (JAK3): Kd (RCK)<10; and D represents Kd (JAK3): Kd(RCK)<1.
(Real-time PCR tracks product formation cycle by cycle.)

In assay [2] the target is T2, JAK2 (Homo sapiens, UniProt O60674).
T2 construct: made in house; host or cells: E. coli BL21-derived host (T7 phage) or HEK-293
Put plainly: Kinase competition binding assay (Kd, qPCR readout), JAK2. As to conditions: for Kd: Kd class, JAK2, read-out: JAK2 Activity Level; for RCK:JAK2 selectivity ratio: ratio Kd (JAK2): Kd(RCK). On the procedure: as §1, §2, §3, §4
Additionally, RCK:JAK2 selectivity, as measured by the ratio Kd (JAK2): Kd(RCK) is represented as follows: A represents Kd (JAK2): Kd (RCK)>100; B represents 10<Kd(JAK2): Kd (RCK)<100; C represents 1<Kd (JAK2): Kd (RCK)<10; and D represents Kd(JAK2): Kd (RCK)<1.

The target of assay [3] is T3, kinase domain protein of RC kinase (RCK) (Homo sapiens, UniProt Q56UN5).
T3 construct: made in house; host or cells: E. coli BL21-derived host (T7 phage) or HEK-293
T3 sequence (Q56UN5 1061-1324 limits assumed): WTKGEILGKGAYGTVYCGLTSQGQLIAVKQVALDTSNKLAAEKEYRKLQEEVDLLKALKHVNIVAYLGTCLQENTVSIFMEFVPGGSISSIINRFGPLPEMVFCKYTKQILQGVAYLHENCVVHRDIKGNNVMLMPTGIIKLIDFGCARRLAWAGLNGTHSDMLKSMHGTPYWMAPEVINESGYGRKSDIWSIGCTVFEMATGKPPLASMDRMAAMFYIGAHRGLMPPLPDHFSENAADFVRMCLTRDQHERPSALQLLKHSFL
Put plainly: Kinase competition binding assay (Kd, qPCR readout), RC kinase. The following applies: Kd class, read-out: RCK Activity Level. As for the experimental part:
as §1, §2, §3, §4

T1 sequence (P52333 811-1124 limits assumed): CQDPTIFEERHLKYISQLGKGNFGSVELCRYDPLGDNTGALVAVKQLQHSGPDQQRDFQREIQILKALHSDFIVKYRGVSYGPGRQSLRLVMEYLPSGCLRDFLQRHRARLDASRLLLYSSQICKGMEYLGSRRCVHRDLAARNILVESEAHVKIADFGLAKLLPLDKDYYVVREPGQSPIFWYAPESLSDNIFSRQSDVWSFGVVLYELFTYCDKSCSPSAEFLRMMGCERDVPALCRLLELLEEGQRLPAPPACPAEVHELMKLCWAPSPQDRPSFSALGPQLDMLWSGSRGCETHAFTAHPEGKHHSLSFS
T2 sequence (O60674 840-1132 limits assumed): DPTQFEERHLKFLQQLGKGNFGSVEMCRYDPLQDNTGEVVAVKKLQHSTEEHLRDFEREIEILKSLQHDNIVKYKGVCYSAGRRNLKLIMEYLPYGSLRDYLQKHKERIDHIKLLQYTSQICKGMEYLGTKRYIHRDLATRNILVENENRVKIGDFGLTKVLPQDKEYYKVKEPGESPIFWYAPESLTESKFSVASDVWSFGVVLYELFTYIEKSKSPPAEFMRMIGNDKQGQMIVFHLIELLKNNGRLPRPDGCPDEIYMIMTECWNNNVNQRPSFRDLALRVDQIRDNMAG

Regarding `Cc1cc(Nc2n[nH]c(NCc3cc(C)c(O)c(C)c3)c2C(N)=O)ccc1N1CCN(C)CC1` [Compound 29, 5-((4-hydroxy-3,5-dimethylbenzyl)amino)-3-((3-methyl-4-(4-methylpiperazin-1-yl)phenyl)amino)-1H-pyrazole-4-carboxamide], in assay [1], the Kd is more than 1000 nM and the “RCK:JAK3 selectivity ratio” value was “B (B represents 10<Kd (JAK3): Kd (RCK)<100)”. Besides, in assay [2], the Kd is 100 to 1000 nM and the “RCK:JAK2 selectivity ratio” value was “B (B represents 10<Kd(JAK2): Kd (RCK)<100)”. Further, in assay [3], the Kd was less than 50 nM.

Take `Cc1cc(Nc2n[nH]c(NCc3cc(C)c(O)c(C)c3)c2C(N)=O)ccc1N1CCCCC1` [Compound 30, 5-((4-hydroxy-3,5-dimethylbenzyl)amino)-3-((3-methyl-4-(piperidin-1-yl)phenyl)amino)-1H-pyrazole-4-carboxamide]: in assay [1], the Kd was more than 1000 nM and the “RCK:JAK3 selectivity ratio” value is given as “B (B represents 10<Kd (JAK3): Kd (RCK)<100)”. In assay [2], the Kd is more than 1000 nM and the “RCK:JAK2 selectivity ratio” value is reported as “B (B represents 10<Kd(JAK2): Kd (RCK)<100)”. Also, in assay [3], the Kd was in the range of 50 to 100 nM.

As for `Cc1cc(CNc2[nH]nc(Nc3ccc(N4CCN(Cc5ccccc5)CC4)cc3)c2C(N)=O)cc(C)c1O` [Compound 31, 3-((4-(4-benzylpiperazin-1-yl)phenyl)amino)-5-((4-hydroxy-3,5-dimethylbenzyl)amino)-1H-pyrazole-4-carboxamide], in assay [1], the Kd was more than 1000 nM and the “RCK:JAK3 selectivity ratio” value is reported as “B (B represents 10<Kd (JAK3): Kd (RCK)<100)”. Moreover, in assay [2], the Kd was more than 1000 nM and the “RCK:JAK2 selectivity ratio” value was “B (B represents 10<Kd(JAK2): Kd (RCK)<100)”. In assay [3], the Kd is less than 50 nM.

Regarding `Cc1cc(CNc2[nH]nc(Nc3ccc(N4CCS(=O)(=O)CC4)cc3)c2C(N)=O)cc(C)c1O` [Compound 32, 3-((4-(1,1-dioxidothiomorpholino)phenyl)amino)-5-((4-hydroxy-3,5-dimethylbenzyl)amino)-1H-pyrazole-4-carboxamide], the values for the Kd in assay [1], in assay [2] and in assay [3] were 100 to 1000 nM, 100 to 1000 nM and less than 50 nM, respectively. In addition, the “RCK:JAK3 selectivity ratio” value in assay [1] is reported as “B (B represents 10<Kd (JAK3): Kd (RCK)<100)”. The “RCK:JAK2 selectivity ratio” value in assay [2] is recorded as “C (C represents 1<Kd (JAK2): Kd (RCK)<10)”.

`Cc1cc(CNc2[nH]nc(Nc3ccc(N4CCCCC4)cn3)c2C(N)=O)cc(C)c1O` [Compound 33, 5-((4-hydroxy-3,5-dimethylbenzyl)amino)-3-((5-(piperidin-1-yl)pyridin-2-yl)amino)-1H-pyrazole-4-carboxamide]: in assay [1], the Kd was more than 1000 nM and the “RCK:JAK3 selectivity ratio” value is “B (B represents 10<Kd (JAK3): Kd (RCK)<100)”. Further, in assay [2], the Kd is 100 to 1000 nM and the “RCK:JAK2 selectivity ratio” value was “C (C represents 1<Kd (JAK2): Kd (RCK)<10)”. Also, the Kd in assay [3] was 50 to 100 nM.

In the case of `Cc1cc(CNc2[nH]nc(Nc3ccc(N4CCC(Cl)CC4)cc3)c2C(N)=O)cc(C)c1O` [Compound 34, 3-((4-(4-chloropiperidin-1-yl)phenyl)amino)-5-((4-hydroxy-3,5-dimethylbenzyl)amino)-1H-pyrazole-4-carboxamide], in assay [1], the Kd is more than 1000 nM and the “RCK:JAK3 selectivity ratio” value was “B (B represents 10<Kd (JAK3): Kd (RCK)<100)”. Also, in assay [2], the Kd is more than 1000 nM and the “RCK:JAK2 selectivity ratio” value is “B (B represents 10<Kd(JAK2): Kd (RCK)<100)”. Also, in assay [3], the Kd lay within 50 to 100 nM.

As to `Cc1cc(CNc2[nH]nc(Nc3ccc(CN4CCCC4)cc3)c2C(N)=O)cc(C)c1O` [Compound 35, 5-((4-hydroxy-3,5-dimethylbenzyl)amino)-3-((4-(pyrrolidin-1-ylmethyl)phenyl)amino)-1H-pyrazole-4-carboxamide], in assay [1], the Kd was more than 1000 nM and the “RCK:JAK3 selectivity ratio” value is given as “B (B represents 10<Kd (JAK3): Kd (RCK)<100)”. In assay [2], the Kd was 100 to 1000 nM and the “RCK:JAK2 selectivity ratio” value is given as “C (C represents 1<Kd (JAK2): Kd (RCK)<10)”. The Kd in assay [3] lay in the range of 50 to 100 nM.

For `Cc1cc(CNc2[nH]nc(Nc3ccc(N4CCC(N(C)C)CC4)cc3)c2C(N)=O)cc(C)c1O` [Compound 36, 3-((4-(4-(dimethylamino)piperidin-1-yl)phenyl)amino)-5-((4-hydroxy-3,5-dimethylbenzyl)amino)-1H-pyrazole-4-carboxamide], in assay [1], the Kd was more than 1000 nM and the “RCK:JAK3 selectivity ratio” value is “A (A represents Kd (JAK3): Kd (RCK)>100)”. Further, in assay [2], the Kd was in the range of 100 to 1000 nM and the “RCK:JAK2 selectivity ratio” value is “B (B represents 10<Kd(JAK2): Kd (RCK)<100)”. Further, the Kd in assay [3] was less than 50 nM.

On to `Cc1cc(CNc2[nH]nc(Nc3ccc(N4CCOCC4)c(F)c3)c2C(N)=O)cc(C)c1O` [Compound 37, 3-((3-fluoro-4-morpholinophenyl)amino)-5-((4-hydroxy-3,5-dimethylbenzyl)amino)-1H-pyrazole-4-carboxamide], for which the values for the Kd in assay [1], in assay [2] and in assay [3] were more than 1000 nM, more than 1000 nM and less than 50 nM, respectively. Besides, the “RCK:JAK3 selectivity ratio” value in assay [1] is reported as “A (A represents Kd (JAK3): Kd (RCK)>100)”. For the same compound, the “RCK:JAK2 selectivity ratio” value in assay [2] is “B (B represents 10<Kd(JAK2): Kd (RCK)<100)”.

In the case of `Cc1cc(CNc2[nH]nc(Nc3ccc(-c4cnco4)cc3)c2C(N)=O)cc(C)c1O` [Compound 38, 5-((4-hydroxy-3,5-dimethylbenzyl)amino)-3-((4-(oxazol-5-yl)phenyl)amino)-1H-pyrazole-4-carboxamide], in assay [1], the Kd is more than 1000 nM and the “RCK:JAK3 selectivity ratio” value is given as “A (A represents Kd (JAK3): Kd (RCK)>100)”. Further, in assay [2], the Kd was more than 1000 nM and the “RCK:JAK2 selectivity ratio” value is “A (A represents Kd (JAK2): Kd (RCK)>100)”. The Kd in assay [3] was in the range of 100 to 1000 nM.

Regarding `Cc1cc(CNc2[nH]nc(Nc3ccc(N4CCN(C(=O)N5CCOCC5)CC4)cc3)c2C(N)=O)cc(C)c1O` [Compound 39, 5-((4-hydroxy-3,5-dimethylbenzyl)amino)-3-((4-(4-(morpholine-4-carbonyl)piperazin-1-yl)phenyl)amino)-1H-pyrazole-4-carboxamide], in assay [1], the Kd was less than 50 nM and the “RCK:JAK3 selectivity ratio” value was “B (B represents 10<Kd (JAK3): Kd (RCK)<100)”. In assay [2], the Kd is less than 50 nM and the “RCK:JAK2 selectivity ratio” value is “B (B represents 10<Kd(JAK2): Kd (RCK)<100)”. For the same compound, in assay [3], the Kd fell in the range of 50 to 100 nM.

For the compound `CC(=O)Nc1cccc(Nc2n[nH]c(NCc3cc(C)c(O)c(C)c3)c2C(N)=O)c1` [Compound 40, 3-((3-acetamidophenyl)amino)-5-((4-hydroxy-3,5-dimethylbenzyl)amino)-1H-pyrazole-4-carboxamide], the Kd in assay [1], in assay [2] and in assay [3] was more than 1000 nM in each case. The “RCK:JAK3 selectivity ratio” value in assay [1] was “C (C represents 1<Kd (JAK3): Kd (RCK)<10)”. For the same compound, the “RCK:JAK2 selectivity ratio” value in assay [2] is recorded as “C (C represents 1<Kd (JAK2): Kd (RCK)<10)”.

In the case of `Cc1cc(CNc2[nH]nc(Nc3ccc(N4CCN(C)CC4)c(Cl)c3)c2C(N)=O)cc(C)c1O` [Compound 41, 3-((3-chloro-4-(4-methylpiperazin-1-yl)phenyl)amino)-5-((4-hydroxy-3,5-dimethylbenzyl)amino)-1H-pyrazole-4-carboxamide], the Kd in assay [1] is more than 1000 nM; in assay [2], 100 to 1000 nM; in assay [3] it was less than 50 nM. In assay [1], the “RCK:JAK3 selectivity ratio” value was “A (A represents Kd (JAK3): Kd (RCK)>100)”. Also, in assay [2], the “RCK:JAK2 selectivity ratio” value is recorded as “B (B represents 10<Kd(JAK2): Kd (RCK)<100)”.

These data come from patent US9730914B2, “3,5-diaminopyrazole kinase inhibitors” (Axikin Pharmaceuticals, Inc., priority 2014, dated 2017).
